Measured values published in publication PMC11510666, “Thiazolidinedione-Conjugated Lupeol Derivatives as Potent Anticancer Agents Through a Mitochondria-Mediated Apoptotic Pathway” (Molecules, 2024).
“And” between values parts separate entries of the source, which are not always exact repeats. Equal values may be shown once.

Tests used:
[1] = test system: human breast cancer MCF-7; assay: MTT antiproliferative assay, MCF-7; assay type: cell-based; details: 48 h, mean ± SD, three independent experiments
Protocol: (§1) These cell lines were cultured in Dulbecco's Modified Eagle Medium containing 10% (v/v) fetal bovine serum (FBS, Wisent) and 1% (v/v) Penicillin-Streptomycin Solution mixture (Beyotime, Shanghai, China) at 37 °C under 5% CO2. An MTT assay evaluated the cytotoxicity of lupeol derivatives toward the A549, MCF-7, HepG2, and LO2 cell lines. The cells were inoculated into 96-well plates (3 × 10^3 cells/well) and cultured for 24 h at 37 °C in 5% CO2. After that, a gradient concentration of the test drug was added to continue the incubation for 48 h. Subsequently, the MTT solution continued to incubate with the cells for 4 h. Afterward, the upper waste layer was discarded, and DMSO was added ([…], Tianjin, China). After the formazan completely dissolved, the absorbance of each well at 490 nm was measured with a microplate reader. The mean values were derived from three independent experiments.

[2] = test system: human hepatocarcinoma HepG2; assay: MTT antiproliferative assay, HepG2; assay type: cell-based; details: for SI (selectivity index): IC50 values on L02 cells/HepG2 cells; for IC50: MTT, 48 h, mean ± SD, three independent experiments
Protocol: as §1

human lung cancer A549 = assay: MTT antiproliferative assay, A549; assay type: cell-based; details: 48 h, mean ± SD, three independent experiments
Protocol: as §1

human hepatic LO2 cells = details: for IC50: read-out: IC50 LO2, MTT, 48 h, mean ± SD, three independent experiments
Protocol: as §1

HepG2 cells [3] = details: HepG2, 2, 4 and 8 μM, increasing concentration
Protocol: (§2) To further evaluate compound 12i-induced HepG2 cell apoptosis, HepG2 cells were treated with this compound (at 0, 2, 4, and 8 μM), followed by staining with Acridine Orange/Ethidium bromide (AO/EB). […] Subsequently, we used Annexin V-FITC/PI double staining to characterize the effect of compound 12i based on the total apoptosis rate of HepG2 cells.

HepG2 cells [4] = assay: Annexin V-FITC/PI double staining, flow cytometry; assay type: cell-based, human; details: HepG2, 48 h, blank control 5.75%
Protocol: as §2
HepG2 cells were inoculated into 6-well plates for 24 h, attached via cell adhesion, and then treated with 12i (0, 2, 4, and 8 μM) for 48 h. The cells were harvested and treated with Annexin V-FITC/PI staining solution, and the data were gathered using a flow cytometer (FACS Calibur, BD, Milpitas, CA, USA).

HepG2 cells [5] = assay: Mitochondrial membrane potential, JC-1 staining; assay type: cell-based, human
Source text: MMP depolarization is one of the landmark events of apoptosis. To investigate the impact of 12i on MMP depolarization in HepG2 cells, we used 5,5′,6,6,6,6′-tetrachloro-1,1′,3,3′-tetraethylioiodine carbocyan (JC-1) staining. When the mitochondrial membrane potential is high, JC-1 aggregates in the substrate to form a polymer (J-aggregates), which produces red fluorescence. When the mitochondrial membrane potential is low, JC-1 cannot accumulate in the mitochondrial matrix and exists as a monomer to produce green fluorescence.
HepG2 cells were inoculated into 6-well plates for 24 h, attached via cell adhesion, and then treated with 12i (0, 2, 4, and 8 μM) for 48 h. The cells were cleaned with PBS and treated with JC-1 solution at 25 °C for 20 min, and the data were gathered using a flow cytometer.
HepG2 cells were inoculated into 6-well plates for 24 h, attached via cell adhesion, and then treated with 12i (0, 2, 4, and 8 μM) for 48 h. The cells were cleaned with PBS and treated with JC-1 solution at 25 °C for 20 min, and the samples were collected and imaged using confocal microscopy.

HepG2 cells [6] = details: HepG2, 2, 4 and 8 μM, 48 h, DCFH-DA
Protocol: After the cells were washed with PBS, the supernatant was removed and incubated with 500 μL of 10 μm/L DCFH-DA solution at 25 °C for 20 min, and the data were gathered using a flow cytometer.
After the cells were washed with PBS, the supernatant was removed and incubated with 500 μL of 10 μm/L DCFH-DA solution at 25 °C for 20 min, and the samples were collected and imaged using confocal microscopy.

[7] = test system: P-Akt, P-PI3K, P-mTOR in HepG2 cells; details: HepG2, 2, 4 and 8 μM, 48 h, Western blot, dose-dependent
Protocol: Therefore, Western blotting was conducted to determine the expression of the key proteins Akt, P-Akt, PI3K, P-PI3K, mTOR, and P-mTOR.
(§3) HepG2 cells were seeded in 6-well plates at a density of 1 × 10^6 overnight and treated with 12i (2, 4, and 8 μM) for 48 h. They were then washed twice with cooled PBS to remove the medium and lysed using a lysis buffer containing RIPA (Beyotime, Shanghai, China). The protein levels were quantified using a bicinchoninic acid protein assay kit (Beyotime, Shanghai, China). The proteins were separated via SDS-PAGE electrophoresis and transferred to PVDF membranes (Beyotime, Shanghai, China). After blocking with 5% skim milk for 2 h, the membranes were incubated with the primary antibody overnight at 4 °C, followed by 2 h with the specific secondary antibody. The antibodies were sourced commercially, including Bax (5023T, Cell Signaling Technology, Danvers, MA, USA), Bcl2 (3498T, Cell Signaling Technology, Danvers, MA, USA), Caspase-7 (12827T, Cell Signaling Technology, Danvers, MA, USA), Caspase-9 (9508T, Cell Signaling Technology, Danvers, MA, USA), Cleaved-Caspase-7 (8438T, Cell Signaling Technology, Danvers, MA, USA), Cleaved-Caspase-9 (7237T, Cell Signaling Technology, Danvers, MA, USA), GAPDH (2118T, Cell Signaling Technology, Danvers, MA, USA), PI3K (4249T, Cell Signaling Technology, Danvers, MA, USA), p-PI3K (4228T, Cell Signaling Technology, Danvers, MA, USA), AKT (4691T, Cell Signaling Technology, Danvers, MA, USA), p-AKT (4060T, Cell Signaling Technology, Danvers, MA, USA), mTOR (2972T, Cell Signaling Technology, Danvers, MA, USA). Immunoreactive bands were visualized using BeyoECL Plus (Beyotime, Shanghai, China) and scanned in a ChemiDoc MP Imaging System (Bio-Rad, Shanghai, China).

[8] = test system: Bax, Bcl-2, cleaved caspase-7, cleaved caspase-9 in HepG2 cells; details: HepG2, 2, 4 and 8 μM, 48 h, Western blot
Protocol: The GAPDH expression level was used as an internal control group.
as §3

Compound | IC50 [1] | IC50 [2] | IC50 (human lung cancer A549) | SI (selectivity index) [2] | IC50 (human hepatic LO2 cells) | further results
C=C(C)C1CCC2(C)CCC3(C)C(CCC4C5(C)CCC(OC(=O)NCCNC(=O)CN6C(=O)SC(=Cc7ccccc7OC)C6=O)C(C)(C)C5CCC43C)C12 (centres unmarked) [Compound 12e, Lupeol-3-[(1-Ethylenediaminyl)-4]-5-(2-Methoxybenzylidene)-2,4-Thiazolidinedione] | 14.4 ± 0.72 µM | 12.9 ± 0.52 µM | 13.8 ± 0.76 µM | 4.46 | 57.7 ± 1.14 µM | –
C=C(C)C1CCC2(C)CCC3(C)C(CCC4C5(C)CCC(OC(=O)NCCNC(=O)CN6C(=O)SC(=Cc7ccc(OC)c(OC)c7OC)C6=O)C(C)(C)C5CCC43C)C12 (centres unmarked) [Compound 12f, Lupeol-3-[(1-Ethylenediaminyl)-4]-5-(2,3,4-Trimethoxybenzylidene)-2,4-Thiazolidinedione] | 10 ± 0.22 µM | 9.43 ± 0.78 µM | 9.68 ± 0.52 µM | 3.77 | 35.53 ± 0.34 µM | –
C=C(C)C1CCC2(C)CCC3(C)C(CCC4C5(C)CCC(OC(=O)NCCNC(=O)CN6C(=O)SC(=Cc7cccs7)C6=O)C(C)(C)C5CCC43C)C12 (centres unmarked) [Compound 12h, Lupeol-3-[(1-Ethylenediaminyl)-4]-5-(2-Thienylmethylene)-2,4-Thiazolidinedione] | 17.3 ± 1.28 µM | 18.6 ± 1.49 µM | 13.4 ± 1.08 µM | – | 77.5 ± 1.27 µM | –
C=C(C)C1CCC2(C)CCC3(C)C(CCC4C5(C)CCC(OC(=O)NCCNC(=O)CN6C(=O)SC(=CC(C)C)C6=O)C(C)(C)C5CCC43C)C12 (centres unmarked) [Compound 12i, Lupeol-3-[(1-Ethylenediaminyl)-4]-5-(2-Methylpropylidene)-2,4-Thiazolidinedione] | 8.74 ± 0.34 µM | 4.4 ± 0.02 µM | 10.1 ± 0.62 µM | – | 29.2 ± 0.53 µM | morphological variations after AO/EB staining (HepG2 cells [3]): the green fluorescence gradually weakened and turned orange–red; total apoptosis rate (HepG2 cells [4]; 2 μM): 11.46%; total apoptosis rate (HepG2 cells [4]; 4 μM): 22.40%; total apoptosis rate (HepG2 cells [4]; 8 μM): 60.50%; effect on mitochondrial membrane potential (Δψm) (HepG2 cells [5]; HepG2, 2, 4 and 8 μM, JC-1 fluorescence microscopy): significantly reduce Δψm; monomer rate of JC-1 (HepG2 cells [5]; HepG2, 48 h, 8 μM, blank control 1.95%): 35.8%; potency against HepG2 relative to lupeol ([2]; HepG2, IC50 lupeol / IC50 compound): 9.9 fold and 9.91 fold; ROS production (HepG2 cells [6]): induces ROS production dose-dependently; cytotoxicity to human hepatic cell LO2 (in words) (human hepatic LO2 cells): weakly cytotoxic; phosphorylation level of P-Akt [7]: reduce the phosphorylation levels; phosphorylation level of P-PI3K [7]: reduce the phosphorylation levels; phosphorylation level of P-mTOR [7]: reduce the phosphorylation levels; Bax expression ([8]; GAPDH internal control): upregulate; Bcl-2 expression ([8]; GAPDH internal control): downregulate; cleaved caspase-7 expression level ([8]; dose dependently): activated; cleaved caspase-9 expression level ([8]; dose dependently): activated

Further lines, with some results ahead:

IC50 [1] | IC50 [2] | IC50 (human lung cancer A549) | Compound | SI (selectivity index) [2] | IC50 (human hepatic LO2 cells) | further results
9.12 ± 0.24 µM | 15.8 ± 0.68 µM | 16.4 ± 0.43 µM | C=C(C)C1CCC2(C)CCC3(C)C(CCC4C5(C)CCC(OC(=O)NCCNC(=O)CN6C(=O)SC(=Cc7ccc(C(C)(C)C)cc7)C6=O)C(C)(C)C5CCC43C)C12 (centres unmarked) [Compound 12d, Lupeol-3-[(1-Ethylenediaminyl)-4]-5-(4-Tert-Butylphenyl)-2,4-Thiazolidinedione] | 3.80 | 59.9 ± 1.03 µM | –
16.4 ± 0.87 µM | 14.3 ± 0.56 µM | 15.7 ± 1.42 µM | C=C(C)C1CCC2(C)CCC3(C)C(CCC4C5(C)CCC(OC(=O)NCCNC(=O)CN6C(=O)SC(=Cc7ccco7)C6=O)C(C)(C)C5CCC43C)C12 (centres unmarked) [Compound 12g, Lupeol-3-[(1-Ethylenediaminyl)-4]-5-(2-Furanylmethylene)-2,4-Thiazolidinedione] | 4.42 | 63.2 ± 1.31 µM | –
